Experimental data: BindingDB's records for doi:10.3109/14756366.2012.681650 (East China University of Science and Technology, 2013)
Where “and” joins values, the source holds several entries; their conditions need not be identical. Equal entries are not always repeated.

Molecular target: T1, Interstitial collagenase [100-268] (Homo sapiens, UniProt P03956)
T1 construct: 100-268
T1 sequence (P03956 whole entry): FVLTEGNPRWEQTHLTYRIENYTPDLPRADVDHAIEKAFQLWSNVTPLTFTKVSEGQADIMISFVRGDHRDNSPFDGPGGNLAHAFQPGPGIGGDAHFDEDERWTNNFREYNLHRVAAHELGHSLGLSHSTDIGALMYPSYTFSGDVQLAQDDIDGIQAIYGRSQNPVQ
Assay: cd-MMP-1 Activity Assay
Conditions: pH 7.5
Method: The activity of cd-MMP-1 was measured using a fluorescence-based assay. It was performed in white 96-well half area microplate (Greiner) in a final volume of 100 μL. […] The reaction was initiated by the addition of 50 μl of quenched fluorogenic peptide substrate: Dnp-Pro-beta-cyclohexyl-Ala-Gly-Cys(Me)-His-Ala-Lys(Nma)-NH2 (final concentration 5 μM). The cd-MMP-1 activity was determined in an Synergy™ 2 Multi-Mode Microplate Reader(BioTek) at an excitation wavelength of 360 nm and an emission wavelength of 460 nm.

SMILES	IC50
O=c1c(O)c(-c2cc(O)c(O)c(O)c2)oc2cc(O)cc(O)c12	2.92 µM
CNC(=O)C(CCc1ccccc1)NC(=O)C(CC(=O)NO)CC(C)C (stereo unspecified)	0.01 µM
O=c1c(O)c(-c2ccc(O)cc2)oc2cc(O)cc(O)c12	1.35 µM and 3.92 µM
COc1ccc(S(=O)(=O)N2CC(C)(C)CN(S(=O)(=O)c3ccc(OC)cc3)C2C(=O)NO)cc1 [1,3-BIS-(4-METHOXY-BENZENESULFONYL)-5,5-DIMETHYL-HEXAHYDRO-PYRIMIDINE-2-CARBOXYLIC ACID HYDROXYAMIDE]	0.013 µM
O=c1c(O)c(-c2ccc(O)cc2O)oc2cc(O)cc(O)c12 [2-(2,4-dihydroxyphenyl)-3,5,7-trihydroxychromen-4-one]	4.85 µM
O=c1cc(-c2ccc(O)c(O)c2)oc2cc(O)cc(O)c12 [2-(3,4-dihydroxyphenyl)-5,7-dihydroxy-4H-chromen-4-one]	3.03 µM
